Experimental data taken from ChEMBL document CHEMBL1201862, “PubChem BioAssay data set” (2004).
Activity calls are given as the source filed them.

Tests used:
[1] = biological target: T1, Dual specificity protein phosphatase 6 (Rattus norvegicus, UniProt Q64346); type: functional
T1 sequence (Q64346 whole entry): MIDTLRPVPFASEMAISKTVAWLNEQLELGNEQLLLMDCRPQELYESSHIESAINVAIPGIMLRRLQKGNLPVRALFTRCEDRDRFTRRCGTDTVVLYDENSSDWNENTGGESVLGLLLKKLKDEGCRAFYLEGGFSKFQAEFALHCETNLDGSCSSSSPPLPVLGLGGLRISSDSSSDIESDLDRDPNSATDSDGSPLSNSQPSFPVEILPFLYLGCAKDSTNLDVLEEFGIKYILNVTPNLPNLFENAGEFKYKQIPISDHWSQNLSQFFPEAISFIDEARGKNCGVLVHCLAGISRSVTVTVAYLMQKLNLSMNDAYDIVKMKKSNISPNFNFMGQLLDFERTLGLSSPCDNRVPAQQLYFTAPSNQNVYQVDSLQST

[2] = biological target: T2, Tyrosine-protein phosphatase non-receptor type 7 (Homo sapiens, UniProt P35236); assay: SAR analysis of chemical inhibitors of HePTP using a Fluorescent assay - Set 2. [Related pubchem assays (depositor defined):AID1059, AID1077, AID1661, AID2085, AID521]; type: functional
T2 sequence (P35236 whole entry): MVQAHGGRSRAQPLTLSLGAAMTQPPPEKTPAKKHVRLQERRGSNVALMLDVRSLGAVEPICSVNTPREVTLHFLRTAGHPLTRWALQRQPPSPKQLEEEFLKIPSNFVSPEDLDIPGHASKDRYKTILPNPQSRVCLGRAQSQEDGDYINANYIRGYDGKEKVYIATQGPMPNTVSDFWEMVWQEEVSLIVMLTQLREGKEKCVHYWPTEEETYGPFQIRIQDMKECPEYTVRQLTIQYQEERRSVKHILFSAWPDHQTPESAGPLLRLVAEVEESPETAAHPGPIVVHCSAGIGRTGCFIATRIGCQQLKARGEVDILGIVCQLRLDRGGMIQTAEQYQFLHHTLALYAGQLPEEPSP

[3] = biological target: T2, Tyrosine-protein phosphatase non-receptor type 7; assay: HePTP (PTPN7) phosphatase inhibitor potency, SAR follow-up, biochemical, set 2 (AID 449736); type: functional
[4] = biological target: T3, Dual specificity protein phosphatase 3 (Homo sapiens, UniProt P51452); assay: SAR VHR1 Fluorescent Assay for In Vitro dose response studies Set 2. [Related pubchem assays (depositor defined):AID1654, AID1661, AID1878]; type: functional
T3 sequence (P51452 whole entry): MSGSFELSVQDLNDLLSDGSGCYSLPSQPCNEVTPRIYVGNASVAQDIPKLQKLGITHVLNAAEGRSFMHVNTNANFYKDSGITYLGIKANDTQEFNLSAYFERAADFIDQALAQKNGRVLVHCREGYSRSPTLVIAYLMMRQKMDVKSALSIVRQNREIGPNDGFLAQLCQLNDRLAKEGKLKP

[5] = biological target: T1, Dual specificity protein phosphatase 6; assay: MKP-3 phosphatase inhibitors, primary screen, biochemical, rat enzyme, in vitro (AID 425)
[6] = biological target: T3, Dual specificity protein phosphatase 3; assay: VHR1 phosphatase inhibitors, primary screen, biochemical, absorbance, uHTS (AID 1654)
[7] = biological target: T3, Dual specificity protein phosphatase 3; assay: VHR1 phosphatase inhibitors, biochemical (AID 1878)
[8] = biological target: T3, Dual specificity protein phosphatase 3; assay: SAR VHR1 absorbance Assay for In Vitro dose response studies. [Related pubchem assays (depositor defined):AID1654, AID1661, AID1878, AID1992, AID2004]
[9] = biological target: T3, Dual specificity protein phosphatase 3; assay: SAR VHR1 Fluorescent Assay for In Vitro dose response studies. [Related pubchem assays (depositor defined):AID1654, AID1661, AID1878, AID1992, AID2004, AID2070, AID2085]; type: functional
[10] = biological target: T1, Dual specificity protein phosphatase 6; assay: SAR analysis of inhibitors of MKP-3 - Set 2. [Related pubchem assays (depositor defined):AID1055, AID1661, AID425, AID553, AID566]; type: functional
[11] = biological target: T2, Tyrosine-protein phosphatase non-receptor type 7; assay: redox-dependent HePTP inhibition, mechanism study, biochemical, fluorescence (AID 2068); type: functional
[12] = biological target: Sphingosine 1-phosphate receptor 2 (Homo sapiens, UniProt O95136); assay: Late stage counterscreen assay for S1P4 antagonists: Fluorescence dose response cell-based screening assay for antagonists of the Sphingosine 1-Phosphate Receptor 2 (S1P2). [Related pubchem assays (depositor defined):AID1510, AID1524, AID1692, AID1853, AID2332, AID489009, AID489017]; type: functional
[13] = biological target: Sphingosine 1-phosphate receptor 1 (Homo sapiens, UniProt P21453); assay: Late stage counterscreen assay for S1P4 antagonists: Fluorescence dose response cell-based screening assay for antagonists of the Sphingosine 1-Phosphate Receptor 1 (S1P1). [Related pubchem assays (depositor defined):AID1510, AID1524, AID1692, AID1853, AID2332, AID489009, AID489017]; type: functional
[14] = biological target: Sphingosine 1-phosphate receptor 5 (Homo sapiens, UniProt Q9H228); assay: Late stage counterscreen assay for S1P4 antagonists: Fluorescence dose response cell-based screening assay for antagonists of the Sphingosine 1-Phosphate Receptor 5 (S1P5). [Related pubchem assays (depositor defined):AID1510, AID1524, AID1692, AID1853, AID2332, AID489009, AID489017]; type: functional
[15] = biological target: Sphingosine 1-phosphate receptor 3 (Homo sapiens, UniProt Q99500); assay: Late stage counterscreen assay for S1P4 antagonists: Fluorescence dose response cell-based screening assay for antagonists of the Sphingosine 1-Phosphate Receptor 3 (S1P3). [Related pubchem assays (depositor defined):AID1510, AID1524, AID1692, AID1853, AID2332, AID489009, AID489017]; type: functional
Sphingosine 1-phosphate receptor 3, sequence (Q99500 whole entry): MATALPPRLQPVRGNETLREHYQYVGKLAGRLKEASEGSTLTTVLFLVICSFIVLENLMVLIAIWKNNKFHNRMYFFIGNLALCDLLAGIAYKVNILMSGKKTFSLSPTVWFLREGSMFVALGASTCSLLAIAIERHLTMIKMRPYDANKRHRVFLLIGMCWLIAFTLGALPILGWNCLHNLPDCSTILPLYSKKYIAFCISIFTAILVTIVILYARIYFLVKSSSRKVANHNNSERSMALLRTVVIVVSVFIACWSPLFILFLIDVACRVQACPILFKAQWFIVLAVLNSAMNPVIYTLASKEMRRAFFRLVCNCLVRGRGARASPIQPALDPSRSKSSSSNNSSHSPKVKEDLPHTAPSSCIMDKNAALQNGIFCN

[16] = biological target: T4, Voltage-gated N-type calcium channel alpha-1B subunit/Amyloid beta A4 precursor protein-binding family A member 1 (Homo sapiens, UniProt Q00975+Q02410); assay: disruptors of Mint-PDZ/N-type channel peptide interaction – biochemical, HTRF, SAR follow-up (AID 2489); type: functional
T4 sequence (Q00975 whole entry): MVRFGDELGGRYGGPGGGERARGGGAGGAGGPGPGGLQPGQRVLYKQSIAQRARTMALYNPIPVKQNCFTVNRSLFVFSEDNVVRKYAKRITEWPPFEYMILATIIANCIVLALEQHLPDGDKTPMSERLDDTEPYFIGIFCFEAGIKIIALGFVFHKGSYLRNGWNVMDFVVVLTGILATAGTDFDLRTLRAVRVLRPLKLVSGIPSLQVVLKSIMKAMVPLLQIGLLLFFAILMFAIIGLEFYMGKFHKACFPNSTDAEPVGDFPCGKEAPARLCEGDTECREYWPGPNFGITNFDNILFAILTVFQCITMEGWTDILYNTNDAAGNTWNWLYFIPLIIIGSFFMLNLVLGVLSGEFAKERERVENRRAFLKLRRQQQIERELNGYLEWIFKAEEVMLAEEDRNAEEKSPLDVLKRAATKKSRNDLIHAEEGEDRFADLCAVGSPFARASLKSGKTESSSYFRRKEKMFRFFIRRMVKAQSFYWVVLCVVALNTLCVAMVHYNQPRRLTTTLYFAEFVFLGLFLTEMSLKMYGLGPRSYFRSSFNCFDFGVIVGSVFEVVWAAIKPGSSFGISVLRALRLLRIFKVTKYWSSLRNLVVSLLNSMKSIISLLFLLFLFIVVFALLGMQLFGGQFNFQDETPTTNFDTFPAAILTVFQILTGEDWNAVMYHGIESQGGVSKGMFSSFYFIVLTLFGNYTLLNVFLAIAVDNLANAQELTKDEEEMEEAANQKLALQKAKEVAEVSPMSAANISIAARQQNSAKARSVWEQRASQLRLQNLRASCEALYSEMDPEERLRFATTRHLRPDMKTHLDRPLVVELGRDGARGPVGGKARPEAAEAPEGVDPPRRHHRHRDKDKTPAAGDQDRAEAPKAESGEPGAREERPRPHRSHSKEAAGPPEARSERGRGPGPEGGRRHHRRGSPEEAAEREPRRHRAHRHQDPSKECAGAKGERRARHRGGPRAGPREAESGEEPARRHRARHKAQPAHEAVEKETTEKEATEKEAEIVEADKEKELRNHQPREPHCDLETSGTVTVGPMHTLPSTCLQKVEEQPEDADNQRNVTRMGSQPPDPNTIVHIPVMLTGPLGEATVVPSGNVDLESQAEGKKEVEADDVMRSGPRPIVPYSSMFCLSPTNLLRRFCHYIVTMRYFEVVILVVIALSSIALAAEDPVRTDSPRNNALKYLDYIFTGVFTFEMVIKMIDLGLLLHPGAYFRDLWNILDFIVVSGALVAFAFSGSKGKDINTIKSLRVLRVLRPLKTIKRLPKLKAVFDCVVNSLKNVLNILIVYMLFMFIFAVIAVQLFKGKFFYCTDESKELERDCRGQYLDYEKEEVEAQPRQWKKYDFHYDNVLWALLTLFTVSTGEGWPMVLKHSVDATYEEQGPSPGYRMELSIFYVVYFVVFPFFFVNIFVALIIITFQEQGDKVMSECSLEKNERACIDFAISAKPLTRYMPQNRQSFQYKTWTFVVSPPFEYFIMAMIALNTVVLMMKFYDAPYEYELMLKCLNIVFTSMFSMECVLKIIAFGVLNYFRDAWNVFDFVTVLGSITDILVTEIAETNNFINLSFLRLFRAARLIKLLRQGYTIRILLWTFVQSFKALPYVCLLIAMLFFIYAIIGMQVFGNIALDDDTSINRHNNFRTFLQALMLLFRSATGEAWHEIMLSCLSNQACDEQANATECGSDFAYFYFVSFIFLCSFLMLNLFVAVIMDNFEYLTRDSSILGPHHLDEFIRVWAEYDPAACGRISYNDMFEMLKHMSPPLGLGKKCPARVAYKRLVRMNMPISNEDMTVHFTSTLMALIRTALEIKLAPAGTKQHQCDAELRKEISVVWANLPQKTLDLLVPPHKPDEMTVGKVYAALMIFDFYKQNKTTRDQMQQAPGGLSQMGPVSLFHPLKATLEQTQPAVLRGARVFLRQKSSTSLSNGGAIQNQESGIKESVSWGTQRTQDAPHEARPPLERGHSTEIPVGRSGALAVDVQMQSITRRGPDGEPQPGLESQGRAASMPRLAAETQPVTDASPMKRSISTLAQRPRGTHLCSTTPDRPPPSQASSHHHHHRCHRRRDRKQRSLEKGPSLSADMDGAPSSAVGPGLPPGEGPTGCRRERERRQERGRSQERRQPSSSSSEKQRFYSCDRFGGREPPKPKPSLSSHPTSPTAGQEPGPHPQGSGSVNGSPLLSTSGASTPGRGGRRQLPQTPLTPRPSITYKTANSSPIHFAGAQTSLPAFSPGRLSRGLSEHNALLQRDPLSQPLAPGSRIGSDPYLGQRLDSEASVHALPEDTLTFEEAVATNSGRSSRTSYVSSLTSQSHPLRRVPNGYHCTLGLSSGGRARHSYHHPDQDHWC
T4 sequence (Q02410 whole entry): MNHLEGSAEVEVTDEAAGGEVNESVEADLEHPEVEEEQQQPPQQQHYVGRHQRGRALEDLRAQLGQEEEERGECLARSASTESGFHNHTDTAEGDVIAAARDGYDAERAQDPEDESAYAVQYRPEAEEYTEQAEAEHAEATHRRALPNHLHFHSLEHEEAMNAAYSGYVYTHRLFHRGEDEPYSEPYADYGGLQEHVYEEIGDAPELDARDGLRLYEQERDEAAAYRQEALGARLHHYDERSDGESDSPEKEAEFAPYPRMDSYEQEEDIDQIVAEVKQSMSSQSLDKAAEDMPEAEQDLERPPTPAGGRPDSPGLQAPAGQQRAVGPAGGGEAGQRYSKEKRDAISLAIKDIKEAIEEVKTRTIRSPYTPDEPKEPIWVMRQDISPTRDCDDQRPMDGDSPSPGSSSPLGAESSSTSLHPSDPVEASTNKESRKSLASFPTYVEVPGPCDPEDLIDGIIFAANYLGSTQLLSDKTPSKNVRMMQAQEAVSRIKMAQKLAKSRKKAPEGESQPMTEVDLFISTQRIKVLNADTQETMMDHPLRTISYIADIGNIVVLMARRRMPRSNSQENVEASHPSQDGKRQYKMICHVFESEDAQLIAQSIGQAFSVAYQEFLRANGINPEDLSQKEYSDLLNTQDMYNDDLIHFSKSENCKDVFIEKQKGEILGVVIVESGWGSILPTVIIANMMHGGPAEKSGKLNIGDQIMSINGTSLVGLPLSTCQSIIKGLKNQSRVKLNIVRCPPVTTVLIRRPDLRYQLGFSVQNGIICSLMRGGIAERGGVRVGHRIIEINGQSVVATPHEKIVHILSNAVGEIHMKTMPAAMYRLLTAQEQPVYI

SUMO E1/E2 = SUMO E1/E2 (Homo sapiens, UniProt P63279+Q9UBE0+Q9UBT2); assay: SAR analysis of SUMOylation using HTRF in an in-Vitro dose response assay. [Related pubchem assays (depositor defined):AID2006, AID2011, AID2018, AID2069, AID2658]; type: functional
SUMO E1/E2, sequence (Q9UBE0 whole entry): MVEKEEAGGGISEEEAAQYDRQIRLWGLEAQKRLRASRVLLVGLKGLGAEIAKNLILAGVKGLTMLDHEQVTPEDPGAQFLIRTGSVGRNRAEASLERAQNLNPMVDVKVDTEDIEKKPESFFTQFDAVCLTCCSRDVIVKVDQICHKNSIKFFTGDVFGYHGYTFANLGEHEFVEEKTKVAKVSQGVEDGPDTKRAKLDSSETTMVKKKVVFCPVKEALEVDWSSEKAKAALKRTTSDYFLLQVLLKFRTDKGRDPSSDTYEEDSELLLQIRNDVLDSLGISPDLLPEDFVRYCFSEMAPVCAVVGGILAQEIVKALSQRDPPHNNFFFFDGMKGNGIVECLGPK
SUMO E1/E2, sequence (Q9UBT2 whole entry): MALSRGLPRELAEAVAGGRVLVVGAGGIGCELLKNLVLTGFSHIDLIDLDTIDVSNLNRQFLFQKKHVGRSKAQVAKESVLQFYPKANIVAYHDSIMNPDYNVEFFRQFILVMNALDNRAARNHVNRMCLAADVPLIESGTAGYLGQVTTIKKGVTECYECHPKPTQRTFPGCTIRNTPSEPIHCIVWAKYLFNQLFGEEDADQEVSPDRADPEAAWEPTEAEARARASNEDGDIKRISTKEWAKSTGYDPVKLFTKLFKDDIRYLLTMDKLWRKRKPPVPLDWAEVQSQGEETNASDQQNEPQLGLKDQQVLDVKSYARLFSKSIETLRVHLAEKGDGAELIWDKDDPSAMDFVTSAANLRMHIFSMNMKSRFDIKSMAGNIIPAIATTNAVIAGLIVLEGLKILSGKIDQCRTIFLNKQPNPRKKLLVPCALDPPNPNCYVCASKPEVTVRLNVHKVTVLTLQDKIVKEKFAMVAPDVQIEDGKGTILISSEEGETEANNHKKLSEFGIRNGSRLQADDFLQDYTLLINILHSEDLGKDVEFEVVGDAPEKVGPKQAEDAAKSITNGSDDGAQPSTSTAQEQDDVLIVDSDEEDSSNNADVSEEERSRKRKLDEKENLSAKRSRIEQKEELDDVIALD
SUMO E1/E2, sequence (P63279 whole entry): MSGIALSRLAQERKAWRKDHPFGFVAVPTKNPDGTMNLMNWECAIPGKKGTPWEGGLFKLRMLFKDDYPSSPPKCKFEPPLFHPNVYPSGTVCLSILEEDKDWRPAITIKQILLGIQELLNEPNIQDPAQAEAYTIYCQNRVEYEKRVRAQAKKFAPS

[17] = biological target: T4, Voltage-gated N-type calcium channel alpha-1B subunit/Amyloid beta A4 precursor protein-binding family A member 1; assay: disruptors of Mint-PDZ/N-type channel peptide interaction – biochemical, HTRF, set 2, SAR follow-up (AID 434980); type: functional

## NS(=O)(=O)c1ccc(NC(=S)NC2CCCCC2)cc1
[1]
  IC50: > 99 µM (inactive)
[2]
  IC50: 1.27 µM (active)
[3]
  IC50: > 100 µM (inactive)
[4]
  IC50: 0.143 µM (active)
[5]
  IC50: > 158 µM (not active)
[6]
  IC50: 2.15 µM (active)
[7]
  IC50: 3.49 µM (active)
[8]
  IC50: 0.704 µM (active)
[9]
  IC50: > 99 µM (inactive)
[10]
  IC50: > 100 µM (inactive)
[11]
  IC50: 0.025 µM (active)

## Cc1cscc1-c1ccc(C(=O)Nc2c(C)cccc2C)o1
[12]
  IC50: > 25 µM (inactive)
[13]
  IC50: > 25 µM (inactive)
[14]
  IC50: > 25 µM (inactive)
[15]
  IC50: > 25 µM (inactive)

## Cc1ccc(CNC(=O)COC(=O)c2cc(-c3ccco3)nc3ccccc23)cc1
[16]
  IC50: 18.1 µM (active)
SUMO E1/E2
  IC50: 6.5 µM (active)
[17]
  IC50: 12.1 µM (active)
